Columns and labels:
[1] = tested on: mouse model having dermatitis induced by oxazolone (back skin); assay: Visual identification of dermatitis inhibition, mice with oxazolone-induced dermatitis on back; type: in vivo, HR-1 (hairless) mouse; details: 150 μl at 500 nM applied 5 times a week, total 19 times, FIG. 1
Protocol: Specifically, 150 μl of 5% oxazolone (4-ethoxymethylene-2-phenyl-2-oxazolin-5-one) was applied to a back skin of a 6-week-old HR-1 (hairless) mouse, and then 150 μl of oxazolone (4-ethoxymethylene-2-phenyl-2-oxazolin-5-one) diluted into 0.1% was applied thereto 3 times a week, 11 times in total. Thus, the back skin inflammatory reaction was induced. Thereafter, 150 μl of the acylhydrazone derivative compound at a concentration of 500 nM was applied thereto 5 times a week, a total of 19 times. […] A negative control treated with only ethanol as a solvent and a positive control treated with only oxazolone were reflected in the test. The number of mice in each test group was maintained at 10 or more, and the experiment was repeated twice.

[2] = tested on: IL-4, IL-13 and IL-2 mRNA; assay: qPCR of inflammatory cytokine mRNA in back skin tissue of dermatitis-induced mice; type: in vivo, HR-1 (hairless) mouse; details: FIG. 2A to 2C; for inflammatory cytokine expression compared with Cyclosporine A group: comparison with test group treated with Cyclosporine A; for expression level of the inflammatory cytokine (IL-4, IL-13, IL-2 mRNA) in skin tissue: vs positive control treated with only oxazolone, qPCR
Excerpt: Inflammatory cytokines most associated with development of dermatitis such as atopic dermatitis are known as IL-4 and IL-13 which are secreted primarily from Th2 T cells. To further identify the anti-inflammatory effect of the acylhydrazone derivative compounds in mice in which dermatitis is induced by oxazolone. A mRNA level of IL-2 as secreted from Th2 T cells and mRNA levels of IL-4 and IL-13 as the cytokines most closely related to the development of dermatitis in the inflammatory tissue were quantified.
Specifically, a skin tissue was collected from the dermatitis-induced mice produced in Example 1 and crushed using a tissue disruptor. The crushed tissue powder was dissolved in a solution of Trizol reagent (Sigma company), and RNA was extracted therefrom using an RNeasy mini kit (Qiagen company). The extracted RNA was reverse transcribed into cDNA using an ImProm-II™ Reverse Transcription kit (Promega company). Then, using a CFX96™ Real-Time PCR Detection System (Bio-Rad company), levels of the cytokines present in the skin tissue was measured based on a qPCR (quantitative PCR) method.

[3] = tested on: K14 (Keratin 14), K1 (Keratin 1), FLG (Filaggrin gene) mRNA; assay: qPCR of epidermal hyperplasia markers in back skin tissue of dermatitis-induced mice; type: in vivo, HR-1 (hairless) mouse; details: FIG. 3B to 3D
Excerpt: When dermatitis is induced, a pathological symptom such as epidermal hyperplasia which thickens the skin is induced.

[4] = tested on: mouse model having dermatitis induced by oxazolone (ear); assay: Visual identification of dermatitis inhibition, mice with oxazolone-induced dermatitis in ear; type: in vivo; details: 20 μl at 500 nM, total 5 times, 30 minutes after oxazolone, FIG. 4
Protocol: Specifically, 150 μl of 3% concentration of oxazolone was applied to an abdominal skin of a 6-week-old mouse to induce an immune response. 20 μl of the same compound diluted to 0.5% concentration was applied to the mouse's ear, total 5 times a day to induce an inflammatory reaction. Thereafter, at 30 minutes after the oxazolone application, 20 μl of each of the acylhydrazone derivative compounds was applied thereto at a concentration of 500 nM and total 5 times.
Moreover, the negative control treated only with ethanol as a solvent and the positive control treated only with oxazolone were reflected in the experiment. The number of mice in each test group was maintained at 10 or more, and the experiment was repeated twice.

[5] = tested on: ear skin tissue of dermatitis-induced mice; assay: Histopathological analysis (Hematoxylin and Eosin) of ear skin tissue; type: in vivo, mouse; details: H&E staining, FIG. 5
Excerpt: For pathological observation of the skin after completion of the application experiment, an ear skin tissue of each mouse was collected and stained with Hematoxylin and Eosin.

[6] = tested on: IL-4, IL-13 and IL-2 mRNA; assay: qPCR of inflammatory cytokine mRNA in ear skin tissue of dermatitis-induced mice; type: in vivo, mouse; details: FIG. 6A to 6C
Excerpt: Inflammatory cytokines most associated with the development of dermatitis, such as atopic dermatitis are known as IL-4 and IL-13 which are secreted primarily from Th2 T cells. In order to further identify the anti-inflammatory effect of the acylhydrazone derivative compound in mice with dermatitis induced by oxazolone in Example 4, an ear skin tissue was collected to quantify the mRNA levels of IL-2 secreted from Th2 T cells, along with those of IL-4 and IL-13.
Specifically, ear skin tissues were collected from dermatitis-induced mice prepared in Example 4 and crushed using a tissue disruptor. The crushed tissue powder was dissolved in a solution of Trizol reagent (Sigma company), and RNA was extracted using an RNeasy mini kit (Qiagen company). After reverse transcription of the extracted RNA with a cDNA using ImProm-II™ Reverse Transcription kit (Promega company), a level of cytokines present in a skin tissue was measured using a CFX96 Real-Time PCR Detection System (Bio-Rad company) via a qPCR method.

[7] = tested on: K14 and K1 mRNA; assay: qPCR of epidermal hyperplasia markers in ear skin tissue of dermatitis-induced mice; type: in vivo, mouse; details: FIG. 8A and 8B
Excerpt: When dermatitis is induced, pathological symptoms such as epidermal hyperplasia which thickens the skin are induced.

[8] = tested on: phosphorylation of p65 (RelA), NF-κB signaling pathway; assay: Western blot of phosphorylated p65 in RAW macrophage cell line (NF-κB signaling pathway); type: cell-based, mice; details: RAW cells, with NF-κB inducing factors (tumor necrosis factor-α, lipopolysaccharide, or the like), 12 to 24 hours; Western blotting; FIG. 9
Protocol: To further identify the mechanism of action involved in the anti-inflammatory effect by the acylhydrazone derivative compound, RAW cell lines as mice-derived macrophage immune cell lines were incubated. We observed the effect of the compound according to the present disclosure on NF-κB (nuclear factor kappa-light-chain-enhancer of activated B cells) signaling pathway involved in the production of inflammatory cytokines. The NF-κB signaling pathway is involved in inflammatory reactions. In particular, it is known that when phosphorylation of p65 (RelA) is induced, phosphorylated p65 moves to the nucleus of immune cells and induces an expression of cytokines that cause inflammatory reactions.
Specifically, after incubating a predetermined amount of RAW cells (5×10^5 to 10×10^5 cells/well for a 6-well plate) in DMEM medium (containing 10% fetal calf serum), WCI-1004, WCI-1015, and WCI-1031 compounds together with factors (tumor necrosis factor-α, lipopolysaccharide, or the like) inducing the NF-κB signal transduction were applied thereto for 12 to 24 hours. A proteolytic inhibitor and a dephosphorylation inhibitor was added to RIPA lysis and extraction buffer (Thermofisher company). Protein was extracted from the RAW cells. The Western blotting process used a method commonly used in the technical field to which the present disclosure belongs, and an antibody specific to phosphorylated p65 employed a product from Cell Signaling Technology company.

Row | Compound | skin condition (visual), skin inflammatory response [1] | inflammatory cytokine expression compared with Cyclosporine A group [2] | expression level of the inflammatory cytokine (IL-4, IL-13, IL-2 mRNA) in skin tissue [2] | mRNA expression levels of K14, K1 and FLG (epithelial hyperplasia) [3] | skin condition (visual), skin inflammatory reaction [4] | entire thickness of the skin [5] | thickness of the epithelium [5] | level of cytokine expression (IL-4, IL-13, IL-2 mRNA) in ear skin tissue [6] | expression levels of K14 and K1 (epithelial hyperplasia) [7] | phosphorylation of p65 (RelA) [8]
1 | CCOC(=O)Cn1c(C)c(/C=N/NC(=O)c2cc3c(ccc4ccccc43)o2)c2ccccc21 [WCI-1004, ethyl(2-methyl-3(E)-{[(naphtho[2,1-b]furan-2-ylcarbonyl)hydrazono]methyl}-1H-indole-1-yl)acetate] | skin conditions very similar to those of the negative control | lower levels of inflammatory cytokine expression than that in the skin tissue of the test group treated with Cyclosporine A | significantly reduced | restored to normal levels | a skin condition very similar to that of the negative control | reduced to a thickness very similar to that of the negative control | reduced to a thickness very similar to that of the negative control | 50 % of the cytokine expression level of the positive control | restored to a normal level | effectively suppressed
2 | Cc1c(/C=N/NC(=O)c2cc3c(ccc4ccccc43)o2)c2ccccc2n1C [WCI-1015] | skin conditions very similar to those of the negative control | lower levels of inflammatory cytokine expression than that in the skin tissue of the test group treated with Cyclosporine A | significantly reduced | restored to normal levels | a skin condition very similar to that of the negative control | reduced to a thickness very similar to that of the negative control | reduced to a thickness very similar to that of the negative control | 50 % of the cytokine expression level of the positive control | restored to a normal level | effectively suppressed
3 | COC(=O)Cn1c(C)c(/C=N/NC(=O)c2cc3c(ccc4ccccc43)o2)c2ccccc21 [WCI-1031, methyl(E)-2-(2-methyl-3-((2-(naphtho[2,1-b]furan-2-carbonyl)hydrazono)methyl)-1H-indole-1-yl)acetate] | skin conditions very similar to those of the negative control | lower levels of inflammatory cytokine expression than that in the skin tissue of the test group treated with Cyclosporine A | significantly reduced | restored to normal levels | a skin condition very similar to that of the negative control | reduced to a thickness very similar to that of the negative control | reduced to a thickness very similar to that of the negative control | 50 % of the cytokine expression level of the positive control | restored to a normal level | effectively suppressed

— patent US11446281B2, “Anti-inflammatory composition comprising acylhydrazone derivative” (KOREA RESEARCH INSTITUTE OF BIOSCIENCE AND BIOTECHNOLOGY, priority 2018, dated 2022)
